Measured values reported in PubChem BioAssay AID1259407 (Chemical Carcinogenesis Research Information System (CCRIS), 2018).
Calls of active or inactive are those of the source. The rule behind the calls is not given here.

System: CCRIS mutagenicity, Ames/micronucleus/aberration tests
Assay: CCRIS mutagenicity studies
[1] = Test System: AMES SALMONELLA TYPHIMURIUM, Strain/Indicator: TA97, Metabolic Activation: NONE, Method: STANDARD PLATE
[2] = Test System: AMES SALMONELLA TYPHIMURIUM, Strain/Indicator: TA98, Metabolic Activation: NONE, Method: PREINCUBATION
[3] = Test System: AMES SALMONELLA TYPHIMURIUM, Strain/Indicator: TA98, Metabolic Activation: RAT LIVER S-9, PHENOBARBITAL AND BETA-NAPHTHOFLAVONE, Method: PREINCUBATION
[4] = Test System: AMES SALMONELLA TYPHIMURIUM, Strain/Indicator: TA100, Metabolic Activation: NONE, Method: PREINCUBATION
[5] = Test System: AMES SALMONELLA TYPHIMURIUM, Strain/Indicator: TA100, Metabolic Activation: NONE, Method: STANDARD PLATE
[6] = Test System: AMES SALMONELLA TYPHIMURIUM, Strain/Indicator: TA100, Metabolic Activation: RAT LIVER S-9, PHENOBARBITAL AND BETA-NAPHTHOFLAVONE, Method: PREINCUBATION
[7] = Test System: AMES SALMONELLA TYPHIMURIUM, Strain/Indicator: TA1535, Metabolic Activation: NONE, Method: PREINCUBATION
[8] = Test System: AMES SALMONELLA TYPHIMURIUM, Strain/Indicator: TA1537, Metabolic Activation: NONE, Method: PREINCUBATION
[9] = Test System: AMES SALMONELLA TYPHIMURIUM, Strain/Indicator: TA1537, Metabolic Activation: RAT LIVER S-9, PHENOBARBITAL AND BETA-NAPHTHOFLAVONE, Method: PREINCUBATION
[10] = Test System: E.COLI, Strain/Indicator: WP2UVRA, Metabolic Activation: NONE, Method: PREINCUBATION
[11] = Test System: E.COLI, Strain/Indicator: WP2UVRA, Metabolic Activation: RAT LIVER S-9, PHENOBARBITAL AND BETA-NAPHTHOFLAVONE, Method: PREINCUBATION
[12] = Test System: AMES SALMONELLA TYPHIMURIUM, Strain/Indicator: TA98, Metabolic Activation: NONE, Method: STANDARD PLATE
[13] = Test System: AMES SALMONELLA TYPHIMURIUM, Strain/Indicator: TA98, Metabolic Activation: RAT, LIVER, S-9, AROCLOR 1254, Method: STANDARD PLATE
[14] = Test System: AMES SALMONELLA TYPHIMURIUM, Strain/Indicator: TA100, Metabolic Activation: RAT, LIVER, S-9, AROCLOR 1254, Method: STANDARD PLATE

SMILES | mutagenic call [1] | mutagenic call [2] | mutagenic call [3] | mutagenic call [4] | mutagenic call [5] | mutagenic call [6] | mutagenic call [7] | mutagenic call [8] | mutagenic call [9] | mutagenic call [10] | mutagenic call [11] | mutagenic call [12] | mutagenic call [13] | mutagenic call [14] | other results
CC(Br)CBr (stereo unspecified) | inactive; negative | inactive; negative | inactive; negative | inactive; negative | inactive; negative | inactive; negative | inactive; negative | inactive; negative | inactive; negative | inactive; negative | inactive; negative |  |  |  | mutagenic call (Test System: AMES SALMONELLA TYPHIMURIUM, Strain/Indicator: TA97, Metabolic Activation: RAT, LIVER, S-9, PCB, Method: STANDARD PLATE): inactive; negative; mutagenic call (Test System: AMES SALMONELLA TYPHIMURIUM, Strain/Indicator: TA100, Metabolic Activation: RAT, LIVER, MICROSOMES, PHENOBARBITAL, NADPH COFACTORS, Method: STANDARD PLATE): active; positive; mutagenic call (Test System: AMES SALMONELLA TYPHIMURIUM, Strain/Indicator: TA100, Metabolic Activation: RAT, LIVER, MICROSOMES, PHENOBARBITAL, Method: STANDARD PLATE): active; positive; mutagenic call (Test System: AMES SALMONELLA TYPHIMURIUM, Strain/Indicator: TA100, Metabolic Activation: RAT, LIVER, S-9, PCB, Method: STANDARD PLATE): inactive; negative; mutagenic call (Test System: AMES SALMONELLA TYPHIMURIUM, Strain/Indicator: TA1534, Metabolic Activation: HOST-MEDIATED, Method: IN VIVO): inactive; negative; mutagenic call (Test System: AMES SALMONELLA TYPHIMURIUM, Strain/Indicator: TA1950, Metabolic Activation: HOST-MEDIATED, Method: IN VIVO): inactive; negative; mutagenic call (Test System: UDS RAT HEPATOCYTES, Strain/Indicator: THY INCORP, Metabolic Activation: NONE): active; positive
ClC(Cl)C(Cl)Cl | active; positive |  |  |  | active; positive |  |  |  |  |  |  | active; positive | active; positive | active; positive | mutagenic call (End Point: IN VITRO CHROMOSOMAL ABERRATIONS, Test System: CHINESE HAMSTER OVARY CELLS, Metabolic Activation: NONE): inactive; negative; precipitation occurred at 653 ug/ml; mutagenic call (End Point: IN VITRO CHROMOSOMAL ABERRATIONS, Test System: CHINESE HAMSTER OVARY CELLS, Metabolic Activation: RAT, LIVER, S-9, AROCLOR 1254): inactive; negative; mutagenic call (Test System: AMES SALMONELLA TYPHIMURIUM, Strain/Indicator: TA97, Metabolic Activation: RAT, LIVER, S-9, AROCLOR 1254, Method: STANDARD PLATE): active; positive; mutagenic call (Test System: AMES SALMONELLA TYPHIMURIUM, Strain/Indicator: TA104, Metabolic Activation: NONE, Method: STANDARD PLATE): inactive; negative; mutagenic call (Test System: AMES SALMONELLA TYPHIMURIUM, Strain/Indicator: TA104, Metabolic Activation: RAT, LIVER, S-9, AROCLOR 1254, Method: STANDARD PLATE): active; positive; mutagenic call (Test System: AMES SALMONELLA TYPHIMURIUM, Strain/Indicator: TA1530, Metabolic Activation: NONE, Method: SPOT): active; positive; mutagenic call (Test System: AMES SALMONELLA TYPHIMURIUM, Strain/Indicator: TA1535, Metabolic Activation: NONE, Method: SPOT): active; positive
Cc1c(C)c([N+](=O)[O-])c(C(C)(C)C)c([N+](=O)[O-])c1C |  |  |  |  |  |  |  |  |  |  |  |  | inactive; negative | inactive; negative | mutagenic call (Test System: AMES SALMONELLA TYPHIMURIUM, Strain/Indicator: TA98, Metabolic Activation: RAT, LIVER, S-9, AROCLOR 1254, Method: PREINCUBATION): inactive; negative; mutagenic call (Test System: AMES SALMONELLA TYPHIMURIUM, Strain/Indicator: TA100, Metabolic Activation: RAT, LIVER, S-9, AROCLOR 1254, Method: PREINCUBATION): inactive; negative
[O]=[W](=[O])([OH])[OH] |  | inactive; negative | inactive; negative | inactive; negative |  | inactive; negative | inactive; negative | inactive; negative | inactive; negative | inactive; negative | inactive; negative |  |  |  | mutagenic call (Test System: AMES SALMONELLA TYPHIMURIUM, Strain/Indicator: TA1535, Metabolic Activation: RAT LIVER S-9, PHENOBARBITAL AND BETA-NAPHTHOFLAVONE, Method: PREINCUBATION): inactive; negative; mutagenic call (Test System: AMES SALMONELLA TYPHIMURIUM, Strain/Indicator: TA1538, Metabolic Activation: NONE, Method: PREINCUBATION): inactive; negative; mutagenic call (Test System: AMES SALMONELLA TYPHIMURIUM, Strain/Indicator: TA1538, Metabolic Activation: RAT LIVER S-9, PHENOBARBITAL AND BETA-NAPHTHOFLAVONE, Method: PREINCUBATION): inactive; negative
COc1ccc(CO)cc1 |  |  |  |  | inactive; negative |  |  |  |  |  |  |  |  |  | 
O=C(O)c1ccccc1[O-].O=C(O)c1ccccc1[O-].O=C(O)c1ccccc1[O-].[Cr+3] |  |  |  |  | inactive; negative |  |  |  |  |  |  | inactive; negative |  |  | mutagenic call (Test System: AMES SALMONELLA TYPHIMURIUM, Strain/Indicator: TA92, Metabolic Activation: NONE, Method: STANDARD PLATE): inactive; negative; mutagenic call (Test System: AMES SALMONELLA TYPHIMURIUM, Strain/Indicator: TA94, Metabolic Activation: NONE, Method: STANDARD PLATE): inactive; negative
